Several values for one entry are separate records, joined by “and”; a condition that tells them apart may be missing. Identical values can stand only once.
What was measured:
Assay type in all cases: cell-based
[1] = tested on: Pseudomonas aeruginosa; experiment: Test for adequate preservation in skin cream formulation (microorganism counts); details: skin cream emulsion pH 6.75; concentration in label
Method: (§1) A test for adequate preservation was carried out in accordance with the European Pharmacopea (6.0) and United States Pharmacopea (5.1). The testing consisted of the inoculation of a skin cream formulation serving as an emulsion substrate. The skin cream formulation having a pH of 6.75 was as follows: […]
(§2) This skin cream was the emulsion substrate, which formed the base for all further experimentation.
(§3) For Examples 3.1 through 3.10, 390.0 g cream were weighed into a 600-ml beaker. The cream was stirred at room temperature while adding the ingredients specified in Table 51. Each sample was stirred for 2 hours, then placed in the refrigerator until inoculated.
(§4) For Examples 3.11 and 3.12, 179.4 g cream were weighed into a 400-ml beaker. The cream was stirred at room temperature while adding the specified ingredients.
(§5) The samples of Examples 3.1 through 3.10 were challenged with specific organisms (see Table 51) to produce a contamination of between 1.0×10^5 cfu/g and 1.0×10^6 cfu/g. The actual inoculation counts resulting from these challenges were immediately determined by diluting in sterile buffered water and (spread plate method) plating for enumeration.
(§6) Challenge organisms were prepared in Mueller-Hinton broth, allowed to grow for 72 hours at 35° C.+/−2° C., centrifuged at 2500 rpm for 5 minutes, and the supernatant broth was removed. The microbial pellet was then re-diluted with sterile buffered water to a turbidity that matched previous 1.0×10^8 cfu/g concentrations of that organism's specific growth curve.
(§7) The test emulsions were maintained within a specific temperature range optimal for the organisms; 35° C.+/2° C. for the bacteria and 22° C.+/−2° C. for the fungi, for the first three days. They were kept at ambient room temperature for the subsequent time periods.
(§8) Subculture samples of approximately 1 gram were taken for counts at 7, 14, and 30 days and incubated under optimal conditions and nutrition for no less than 5 days. Subcultures were diluted 1:2, 1:10, 1:100, . . . , 1:10,000 and plated using the spread plate method onto Plate Count Agar and onto SAB Dextrose Agar for the Candida and Aspergillus species; and incubated as follows: 35° C.+/−2° C. for the Plate Count Agar and 22° C.+/−2° C. for the SAB Dextrose plates of Candida albicans and Aspergillus niger. Negative results were not reported before 7 days incubation, and counts were performed after no less than 5 days incubation. Because of the high viscosity of the test emulsion, at least a 1:2 dilution was required to perform the spread plate subcultures. 0-30 counts represent a 1 to 2 dilution, numbers […] a 1:10 dilution; and the rest represent dilutions of 1:100, 1:1000, or 1:10,000. […]

[2] = tested on: Aspergillus niger; experiment: as above; details: skin cream emulsion pH 6.75; concentration in label
Method: as §1, §2, §3, §4, §5, §6, §7, §8

[3] = tested on: Staphylococcus aureus ATCC 25923; experiment: MIC determination and synergy testing (Kull synergy index), microplate; details: for QA, MIC of CHDM alone / QA/a: concentration of CHDM alone (QA, MIC): S. aureus; for QA/a: concentration of CHDM alone (QA, MIC): Table 49
Procedure, shortened: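 Broth microdilution in TSB (pH 7.3) for bacteria or SDB (pH 5.6) for C. albicans, 1:1.3333 serial dilutions covering one log in nine steps, agents alone or blended for synergy; triplicate wells inoculated to ~10^6 CFU/mL bacteria or ~10^5 CFU/mL yeast; uninoculated wells correct compound turbidity.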

For `OCC1CCC(CO)CC1` (stereo not shown) [1,4-CHDM, 1,4-cyclohexanedimethanol], which “Antimicrobial activity against Pseudomonas aeruginosa in skin cream (in words)” value [1] is on record?
The value was “significant activity”.

What about the “Antimicrobial activity against Aspergillus niger in skin cream (in words)” value [2] of the same compound?
The value was “significant activity”.

What about the QA/a ([3]; CHDM alone (QA) or in combination with BA:DHA (a), plate 139D, day 1) of the same compound?
Its QA/a is 3.11.

And the QA/a ([3]; CHDM alone (QA) or in combination with BA:DHA (a), plate 139D, day 2)?
The QA/a was 4.15.

And the QA/a ([3]; CHDM alone (QA) or in combination with BA:DHA (a), plate 220D, day 1)?
The QA/a was 3.30.

And the QA/a ([3]; CHDM alone (QA) or in combination with BA:DHA (a), plate 220D, day 2)?
Its QA/a is 3.30.

What about the QA/a ([3]; CHDM alone (QA) or in combination with BA:DHA (a), plate 235D, day 1) of the same compound?
Its QA/a is 5.00.

What about the QA/a ([3]; CHDM alone (QA) or in combination with BA:DHA (a), plate 235D, day 2) of the same compound?
Its QA/a is 5.00.

And the QA/a ([3]; CHDM: MIC alone (QA) or conc. in combination with CP (a), plate 138D, day 1)?
Its QA/a is 3.11.

And the QA/a ([3]; CHDM: MIC alone (QA) or conc. in combination with CP (a), plate 138D, day 2)?
The QA/a was 4.15.

And the QA/a ([3]; CHDM: MIC alone (QA) or conc. in combination with MIT (a), plate 137D, day 2)?
The QA/a was 4.15.

And the QA/a ([3]; CHDM: MIC alone (QA) or conc. in combination with MP (a), plate 166D, day 1)?
Its QA/a is 3.30.

What about the QA/a ([3]; CHDM: MIC alone (QA) or conc. in combination with MP (a), plate 166D, day 2) of the same compound?
Its QA/a is 3.30.

What about the “QA, MIC of CHDM alone” value ([3]; day 1 of incubation, plate 125D (CG series)) of the same compound?
The value was 3.11 weight percent.

What about the “QA, MIC of CHDM alone” value ([3]; day 1 of incubation, plates 124D, 219D, 234D (PE series)) of the same compound?
The value was 3.30 weight percent and 3.75 weight percent and 3.11 weight percent.

What about the “QA, MIC of CHDM alone” value ([3]; day 2 of incubation, plate 125D (CG series)) of the same compound?
The value was 3.11 weight percent.

And the “QA, MIC of CHDM alone” value ([3]; day 2 of incubation, plates 124D, 219D (PE series))?
The value was 3.11 weight percent and 3.30 weight percent.

What about the “QA/a: concentration of CHDM alone (QA, MIC)” value ([3]; Day 1) of the same compound?
Its value is 3.11 weight percent.

And the “QA/a: concentration of CHDM alone (QA, MIC)” value ([3]; Day 2)?
Its value is 4.15 weight percent.
